Measured values published in ChEMBL document CHEMBL2046361, “Ianthelliformisamines A-C, antibacterial bromotyrosine-derived metabolites from the marine sponge Suberea ianthelliformis” (J Nat Prod, 2012).
Values after ≈ are worked out from the molar mass of the structure shown. Active and inactive are the calls of the source. The calls are words filed in the database; no cut-off is given here.

What was measured:
Pseudomonas aeruginosa [1] = assay: Antimicrobial activity against Pseudomonas aeruginosa PAO1 assessed as inhibition of cell viability at 175 uM after 18 hrs by spectrophotometry; assay type: functional; settings: PAO1, 18 h
Staphylococcus aureus [2] = assay: Antimicrobial activity against Staphylococcus aureus 01A1095 assessed as inhibition of cell viability at 87.5 uM after 18 hrs by spectrophotometry; assay type: functional; settings: 01A1095, 18 h
Pseudomonas aeruginosa [3] = assay: Antimicrobial activity against Pseudomonas aeruginosa PAO1 assessed as inhibition of cell viability after 18 hrs by spectrophotometry; assay type: functional, organism-based; settings: PAO1, 18 h
Staphylococcus aureus [4] = assay: Antimicrobial activity against Staphylococcus aureus 01A1095 assessed as inhibition of cell viability at 175 uM after 18 hrs by spectrophotometry; assay type: functional; settings: 01A1095, 18 h
Staphylococcus aureus [5] = assay: Antimicrobial activity against Staphylococcus aureus 01A1095 assessed as inhibition of cell viability after 18 hrs by spectrophotometry; assay type: functional, organism-based; settings: 01A1095, 18 h
Staphylococcus aureus [6] = assay: Antimicrobial activity against Staphylococcus aureus 01A1095 assessed as inhibition of cell viability at 350 uM after 18 hrs by spectrophotometry; assay type: functional, organism-based
Pseudomonas aeruginosa [7] = assay: Antimicrobial activity against Pseudomonas aeruginosa PAO1 assessed as inhibition of cell viability at 350 uM after 18 hrs by spectrophotometry; assay type: functional, organism-based
Pseudomonas aeruginosa [8] = assay: Antimicrobial activity against Pseudomonas aeruginosa PAO1 assessed as inhibition of cell viability at 87.5 uM after 18 hrs by spectrophotometry; assay type: functional; settings: PAO1, 18 h

Row | Structure (SMILES) | IC50 (Pseudomonas aeruginosa [3]) [µM] | MIC (Pseudomonas aeruginosa [3]) [µM] | IC50 (Staphylococcus aureus [5]) [µM] | also measured
1 | COC1=C(Br)[C@H](O)[C@@]2(C=C1Br)CC(C(=O)NCCCOc1c(Br)cc(CCN)cc1Br)=NO2 [ARAPLYSILLIN I] | – | – | – | inhibition at 175 µM (Pseudomonas aeruginosa [1]): 65%; inhibition at 87.5 µM (Staphylococcus aureus [2]): 60%
2 | COc1c(Br)cc(/C=C/C(=O)NCCCNCCCCNCCCN)cc1Br [IANTHELLIFORMISAMINE A] | 6.8 | 35 (≈ 18.2 µg/mL) | – | inhibition at 175 µM (Staphylococcus aureus [4]): 77%
3 | O=C(O)c1cn(C2CC2)c2cc(N3CCNCC3)c(F)cc2c1=O [CIPROFLOXACIN] | 0.038 | – | 125 | –
4 | CN(C)CCCOc1c(Br)cc(CCN(C)C)cc1Br | – | – | – | inhibition (Staphylococcus aureus [6]): inactive; inhibition (Pseudomonas aeruginosa [7]): inactive
5 | COc1c(Br)cc(/C=C/C(=O)NCCCNCCCCNCCCNC(=O)/C=C/c2cc(Br)c(OC)c(Br)c2)cc1Br [IANTHELLIFORMISAMINE C] | 8.9 | 17.5 (≈ 14.7 µg/mL) | 4.1 | MIC (Staphylococcus aureus [5]): 8.75 µM (≈ 7.33 µg/mL)
6 | COc1c(Br)cc(/C=C/C(=O)NCCCNCCCCN)cc1Br [IANTHELLIFORMISAMINE B] | – | – | – | inhibition at 87.5 µM (Pseudomonas aeruginosa [8]): 80%
